Test results reported in ChEMBL document CHEMBL1143095, “Discovery of [(3-bromo-7-cyano-2-naphthyl)(difluoro)methyl]phosphonic acid, a potent and orally active small molecule PTP1B inhibitor” (Bioorg Med Chem Lett, 2008).

What was measured:
[1] = molecular target: T1, Receptor-type tyrosine-protein phosphatase C (Homo sapiens, UniProt P08575); assay: Inhibition of CD45 by fluorescein diphosphate assay
T1 sequence (P08575 whole entry): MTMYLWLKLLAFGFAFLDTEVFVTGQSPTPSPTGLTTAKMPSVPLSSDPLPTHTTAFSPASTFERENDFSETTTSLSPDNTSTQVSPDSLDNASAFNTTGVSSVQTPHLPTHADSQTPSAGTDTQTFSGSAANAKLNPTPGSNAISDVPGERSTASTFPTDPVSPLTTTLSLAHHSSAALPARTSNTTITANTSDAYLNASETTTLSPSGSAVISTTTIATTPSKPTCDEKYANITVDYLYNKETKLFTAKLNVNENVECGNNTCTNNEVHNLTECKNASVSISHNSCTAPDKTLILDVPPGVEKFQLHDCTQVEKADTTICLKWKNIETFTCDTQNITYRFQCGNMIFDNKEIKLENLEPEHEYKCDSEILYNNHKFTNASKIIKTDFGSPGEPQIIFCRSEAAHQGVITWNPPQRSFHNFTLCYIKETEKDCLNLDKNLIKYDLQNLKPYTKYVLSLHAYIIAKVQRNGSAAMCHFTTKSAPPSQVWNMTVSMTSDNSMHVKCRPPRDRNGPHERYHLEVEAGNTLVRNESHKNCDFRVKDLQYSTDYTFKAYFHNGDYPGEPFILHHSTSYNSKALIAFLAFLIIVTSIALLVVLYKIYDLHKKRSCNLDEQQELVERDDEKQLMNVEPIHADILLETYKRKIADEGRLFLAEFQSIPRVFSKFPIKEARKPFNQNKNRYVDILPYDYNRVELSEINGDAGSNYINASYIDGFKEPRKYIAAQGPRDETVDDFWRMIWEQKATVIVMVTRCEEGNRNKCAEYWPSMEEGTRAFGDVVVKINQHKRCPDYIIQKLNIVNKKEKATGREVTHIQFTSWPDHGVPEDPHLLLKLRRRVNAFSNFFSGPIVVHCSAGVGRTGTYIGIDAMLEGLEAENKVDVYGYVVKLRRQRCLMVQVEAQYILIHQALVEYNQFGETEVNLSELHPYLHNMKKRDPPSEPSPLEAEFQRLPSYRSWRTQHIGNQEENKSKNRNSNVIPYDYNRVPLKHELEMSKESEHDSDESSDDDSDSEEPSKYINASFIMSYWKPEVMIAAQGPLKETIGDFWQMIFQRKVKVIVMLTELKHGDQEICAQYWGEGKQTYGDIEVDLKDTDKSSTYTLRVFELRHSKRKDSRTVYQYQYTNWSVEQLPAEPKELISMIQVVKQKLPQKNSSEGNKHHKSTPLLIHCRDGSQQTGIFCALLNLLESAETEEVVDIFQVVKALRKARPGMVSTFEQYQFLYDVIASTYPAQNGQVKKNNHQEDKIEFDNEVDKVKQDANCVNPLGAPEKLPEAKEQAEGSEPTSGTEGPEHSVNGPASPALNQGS

[2] = molecular target: T2, Tyrosine-protein phosphatase non-receptor type 1 (Homo sapiens, UniProt P18031); assay: Inhibition of PTP1B by fluorescein diphosphate assay
T2 sequence (P18031 whole entry): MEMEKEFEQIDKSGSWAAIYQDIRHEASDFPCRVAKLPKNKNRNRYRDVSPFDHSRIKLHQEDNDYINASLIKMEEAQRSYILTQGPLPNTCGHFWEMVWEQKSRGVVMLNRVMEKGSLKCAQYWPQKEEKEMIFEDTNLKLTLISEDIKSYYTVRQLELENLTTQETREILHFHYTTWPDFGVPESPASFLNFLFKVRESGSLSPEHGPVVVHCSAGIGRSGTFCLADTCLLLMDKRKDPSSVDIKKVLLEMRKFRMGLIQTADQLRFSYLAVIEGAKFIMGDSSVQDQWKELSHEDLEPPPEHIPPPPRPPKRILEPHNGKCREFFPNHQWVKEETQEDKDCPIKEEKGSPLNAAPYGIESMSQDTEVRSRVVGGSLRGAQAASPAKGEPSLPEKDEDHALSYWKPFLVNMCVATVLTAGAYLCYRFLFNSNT

[3] = Cmax in mouse plasma at 20 mg/kg, po after 2 hrs; type: ADME, organism-based; set-up: dose 20 mg/kg, route oral
[4] = Clearance in DIO mouse at 5 mg/kg, iv and 20 mg/kg, po; type: ADME, organism-based; details: in vivo
[5] = Oral bioavailability in Squirrel monkey at 5 mg/kg, iv and 10 mg/kg, po; type: ADME, organism-based, Saimiri sciureus; details: in vivo
[6] = Drug level in Squirrel monkey at 5 mg/kg, iv and 10 mg/kg, po after 24 hrs; type: ADME, organism-based, Saimiri sciureus; details: in vivo, read-out: Drug uptake
[7] = Cmax in DIO mouse at 5 mg/kg, iv and 20 mg/kg, po; type: ADME, organism-based; details: in vivo
[8] = Elimination half life in rat at 5 mg/kg, iv and 20 mg/kg, po; type: ADME, organism-based; details: in vivo
Mus musculus [9] = assay: Inhibition of glucose excursion in DIO mouse glucose challenged 2 hrs before the test at 10 mg/kg by oral glucose tolerance test; type: functional
Mus musculus [10] = assay: Inhibition of glucose excursion in DIO mouse glucose challenged 2 hrs before the test at 1 mg/kg by oral glucose tolerance test; type: functional
[11] = Cmax in Squirrel monkey at 5 mg/kg, iv and 10 mg/kg, po; type: ADME, organism-based, Saimiri sciureus; details: in vivo
[12] = Oral bioavailability in DIO mouse at 5 mg/kg, iv and 20 mg/kg, po; type: ADME, organism-based; details: in vivo
[13] = Clearance in rat at 5 mg/kg, iv and 20 mg/kg, po; type: ADME, organism-based; details: in vivo
Mus musculus [14] = assay: Inhibition of glucose excursion in DIO mouse glucose challenged 2 hrs before the test at 3 mg/kg by oral glucose tolerance test; type: functional
[15] = Drug level in rat at 5 mg/kg, iv and 20 mg/kg, po after 24 hrs; type: ADME, organism-based; details: in vivo, read-out: Drug uptake
Mus musculus [16] = species on record: Mus musculus; assay: Inhibition of glucose excursion in DIO mouse glucose challenged 2 hrs before the oral glucose tolerance test; type: functional
[17] = Clearance in Squirrel monkey at 5 mg/kg, iv and 10 mg/kg, po; type: ADME, organism-based, Saimiri sciureus; details: in vivo
[18] = Oral bioavailability in rat at 5 mg/kg, iv and 20 mg/kg, po; type: ADME, organism-based; details: in vivo
[19] = Elimination half life in DIO mouse at 5 mg/kg, iv and 20 mg/kg, po; type: ADME, organism-based; details: in vivo
[20] = Elimination half life in Squirrel monkey at 5 mg/kg, iv and 10 mg/kg, po; type: ADME, organism-based, Saimiri sciureus; details: in vivo
[21] = Drug level in DIO mouse at 5 mg/kg, iv and 20 mg/kg, po after 24 hrs; type: ADME, organism-based; details: in vivo, read-out: Drug uptake
[22] = Cmax in rat at 5 mg/kg, iv and 20 mg/kg, po; type: ADME, organism-based; details: in vivo
[23] = Cmax in C57BL/6 mouse plasma at 10 mg/kg; type: ADME, organism-based; set-up: dose 10 mg/kg
[24] = Cmax in rat plasma at 20 mg/kg; type: ADME, organism-based; set-up: dose 20 mg/kg
[25] = Elimination half life in rat plasma; type: ADME, organism-based
[26] = Oral bioavailability in rat; type: ADME, organism-based; details: in vivo

N#Cc1ccc2cc(C(F)(F)P(=O)(O)O)c(Br)cc2c1
IC50 [1]: > 50000 nM | IC50 [2]: 310 nM

O=C(O)c1cccc(/C=C/c2ccc3cc(Br)c(C(F)(F)P(=O)(O)O)cc3n2)c1
IC50 [1]: 37800 nM | IC50 [2]: 7 nM

Cc1ccc2cc(Br)c(C(F)(F)P(=O)(O)O)cc2c1
IC50 [1]: > 50000 nM | IC50 [2]: 330 nM

N#CCc1ccc2cc(Br)c(C(F)(F)P(=O)(O)O)cc2c1
IC50 [1]: 26800 nM | IC50 [2]: 90 nM | Cmax [3]: 6 µM

O=C(c1ccccc1)C(Cc1ccc(C(F)(F)P(=O)(O)O)c(Br)c1)c1ccccc1 (centres undefined)
IC50 [1]: > 50000 nM

Cc1ccc2ccc(C(F)(F)P(=O)(O)O)cc2n1
IC50 [1]: > 50000 nM | IC50 [2]: > 50000 nM

CC(=O)NCc1ccc2cc(Br)c(C(F)(F)P(=O)(O)O)cc2c1
IC50 [1]: > 50000 nM | IC50 [2]: 1500 nM

O=P(O)(O)C(F)(F)c1cc2ccccc2cc1Br
Ki [2]: 179000 nM

N#Cc1ccc2cc(Br)c(C(F)(F)P(=O)(O)O)cc2c1
clearance [4]: 42.6 mL/h/kg | bioavailability [5]: 2% | IC50 [1]: > 50000 nM | concentration at 24 h [6]: 19 µM | Cmax [7]: 17.4 µM | half-life [8]: > 17 h | inhibition in vivo at 10 mg/kg (Mus musculus [9]): 100% | inhibition in vivo at 1 mg/kg (Mus musculus [10]): 60% | Cmax [11]: 24 µM | bioavailability [12]: 24% | clearance [13]: 1.8 mL/h/kg | inhibition in vivo at 3 mg/kg (Mus musculus [14]): 80% | concentration at 24 h [15]: 45.3 µM | ED50 (Mus musculus [16]): 0.8 mg/kg | clearance [17]: 1.2 mL/h/kg | bioavailability [18]: 4% | half-life [19]: 6 h | half-life [20]: > 30 h | concentration at 24 h [21]: 9 µM | Cmax [22]: 75.6 µM

COCc1ccc2cc(Br)c(C(F)(F)P(=O)(O)O)cc2c1
IC50 [1]: > 50000 nM | IC50 [2]: 510 nM

O=C(Nc1cccc(F)c1)c1ccc2cc(Br)c(C(F)(F)P(=O)(O)O)cc2n1
IC50 [1]: > 50000 nM | IC50 [2]: 27 nM

CC(Cc1ccc(C(F)(F)P(=O)(O)O)cc1)(c1ccccc1)n1nnc2ccccc21 (centres undefined)
IC50 [1]: 50000 nM | IC50 [2]: 16 nM

CS(=O)(=O)Cc1ccc2cc(Br)c(C(F)(F)P(=O)(O)O)cc2c1
IC50 [1]: > 50000 nM | IC50 [2]: 1300 nM

CNC(=O)c1ccc2cc(Br)c(C(F)(F)P(=O)(O)O)cc2n1
IC50 [1]: > 50000 nM | IC50 [2]: 1260 nM

O=P(O)(O)C(F)(F)c1cc2nc(/C=C/c3ccccc3)ccc2cc1Br
IC50 [1]: > 50000 nM | IC50 [2]: 160 nM

NC(=O)c1ccc2cc(Br)c(C(F)(F)P(=O)(O)O)cc2n1
IC50 [1]: > 50000 nM | IC50 [2]: 250 nM | Cmax [23]: 0.3 µM

O=C(NCc1ccccc1)c1ccc2cc(Br)c(C(F)(F)P(=O)(O)O)cc2n1
IC50 [1]: > 50000 nM | IC50 [2]: 45 nM

O=C(Nc1ccccc1)c1ccc2cc(Br)c(C(F)(F)P(=O)(O)O)cc2n1
IC50 [1]: > 50000 nM | IC50 [2]: 60 nM

Cc1ccc2cc(Br)c(C(F)(F)P(=O)(O)O)cc2n1
Cmax [24]: 43.3 µM | IC50 [1]: > 50000 nM | IC50 [2]: 14000 nM | half-life [25]: > 8 h | bioavailability [26]: 5%
